{"source": "patent US11015061B2", "about": "“Phthalocyanine-based compound and uses of same” (YAMAMOTO CHEMICALS, INC., priority 2017, dated 2021)", "key": {"[1]": {"experiment": "Light fastness test of heat ray shielding film", "type": "physicochemical", "conditions": "xenon light 200 hours at 550 W/h, absorbance integrated 400 to 900 nm", "experimental": "(§1) In the evaluation test, the release film was peeled from the produced heat ray shielding film, then the heat ray shielding film was compressed on a 5 cm×5 cm×3 mm (thickness) glass plate, and a test piece created in this way was used.\nFor a light fastness test, the absorption spectrum of the test piece was measured using a spectrophotometer (produced by Hitachi, Ltd.: Spectrophotometer U-3500) and adopted as a spectrum before light fastness test. Then, the test piece used for measuring the spectrum before test was irradiated with light for 200 hours at 550 W/h by using a xenon light fastness tester (produced by Toyo Seiki Seisaku-sho, Ltd.: SUNTEST XLS+). The absorption spectrum of the test piece irradiated with light was measured using the spectrophotometer and adopted as a spectrum after light fastness test.\nIn each of the spectra measured as above before and after the light fastness⋅heat resistance test, the values of absorbance within a range of 400 to 900 nm were integrated, and a difference between the integrated value before the light fastness⋅heat resistance test and the integrated value after the light fastness⋅heat resistance test was calculated.\nThe difference ΔE between the absorbance before the light fastness⋅heat resistance test and the absorbance after the light fastness⋅heat resistance test is expressed by the following equation. ΔE (%)={E(400 to 900 nm in E1)−E(400 to 900 nm in E2)}/E(400 to 900 nm in E1)×100\nE1 represents the spectrum before test, E2 represents the spectrum after test, and Σ represents integration of the values of absorbance.\nThe larger the value of ΔE, the greater the spectrum change between before and after the light fastness⋅heat resistance test."}, "[2]": {"experiment": "Tts (total solar transmittance) of heat ray shielding film", "type": "physicochemical", "conditions": "heat ray shielding film (5 g compound, 50 g acryl resin LP-45M, 2.5 μm on PET) on 3 mm glass plate; JIS R3106", "excerpt": "The phthalocyanine compound (Specific Example (1)-30) produced in Example 1 (5 g), 50 g of an acryl resin LP-45M (trade name, produced by Soken Chemical & Engineering Co., Ltd.), 20 g of methyl ethyl ketone, and 20 g of toluene were mixed and stirred together, thereby producing a resin composition.\nAs a transparent substrate, a polyethylene terephthalate film (PET film) having a thickness of 100 μm was bar-coated with the resin composition such that the thickness thereof became 2.5 μm, and then the applied resin composition was dried for 3 minutes at 100° C. Furthermore, the other surface of the PET film (surface not being coated with the resin composition) was bar-coated with a transparent acryl copolymer-based pressure sensitive adhesive such that the thickness thereof became 20 μm, and the applied pressure sensitive adhesive was dried and cured for 3 minutes at 100° C. Thereafter, a release film was bonded to the surface of the pressure sensitive adhesive, thereby producing a heat ray shielding film.\nas §1\nBy using U-3500 type recording spectrophotometer produced by Hitachi, Ltd. as a measurement instrument, Tts of the laminated glass sample was measured based on JIS R3106 “Testing method for transmittance, reflectance, emissivity, and solar heat gain coefficient of flat glasses”.\nTts (Total solar energy transmitted through a glazing) represents a total solar transmittance."}}}
{"compound": "COc1cccc(OCCCCc2ccc(CCCCOc3cccc(OC)c3)c3c2-c2nc-3nc3[n-]c(nc4nc(nc5[n-]c(n2)c2c(CCCCOc6cccc(OC)c6)ccc(CCCCOc6cccc(OC)c6)c52)-c2c(CCCCOc5cccc(OC)c5)ccc(CCCCOc5cccc(OC)c5)c2-4)c2c(CCCCOc4cccc(OC)c4)ccc(CCCCOc4cccc(OC)c4)c32)c1.[O]=[V+2]", "note": "[Specific Example (1)-39]", "values": [{"measurement": "ΔE (%) Light fastness", "setting": "[1]", "value": 4, "unit": "%"}, {"measurement": "Tts", "setting": "[2]", "value": 85.9, "unit": "%"}]}
{"compound": "[O]=[V+2].c1ccc(OCCCCc2ccc(CCCCOc3ccccc3)c3c2-c2nc-3nc3[n-]c(nc4nc(nc5[n-]c(n2)c2c(CCCCOc6ccccc6)ccc(CCCCOc6ccccc6)c52)-c2c(CCCCOc5ccccc5)ccc(CCCCOc5ccccc5)c2-4)c2c(CCCCOc4ccccc4)ccc(CCCCOc4ccccc4)c32)cc1", "note": "[Specific Example (1)-37]", "values": [{"measurement": "ΔE (%) Light fastness", "setting": "[1]", "value": 5, "unit": "%"}, {"measurement": "Tts", "setting": "[2]", "value": 85.5, "unit": "%"}]}
{"compound": "COc1cccc(OC)c1OCCCCc1ccc(CCCCOc2c(OC)cccc2OC)c2c1-c1nc-2nc2[n-]c(nc3nc(nc4[n-]c(n1)c1c(CCCCOc5c(OC)cccc5OC)ccc(CCCCOc5c(OC)cccc5OC)c41)-c1c(CCCCOc4c(OC)cccc4OC)ccc(CCCCOc4c(OC)cccc4OC)c1-3)c1c(CCCCOc3c(OC)cccc3OC)ccc(CCCCOc3c(OC)cccc3OC)c21.[Cu+2]", "note": "[Specific Example (1)-45]", "values": [{"measurement": "ΔE (%) Light fastness", "setting": "[1]", "value": 2, "unit": "%"}, {"measurement": "Tts", "setting": "[2]", "value": 85.5, "unit": "%"}]}
{"compound": "CCOCCCCc1ccc(CCCCOCC)c2c1-c1nc-2nc2[n-]c(nc3nc(nc4[n-]c(n1)c1c(CCCCOCC)ccc(CCCCOCC)c41)-c1c(CCCCOCC)ccc(CCCCOCC)c1-3)c1c(CCCCOCC)ccc(CCCCOCC)c21.[O]=[V+2]", "note": "[Specific Example (1)-33]", "values": [{"measurement": "ΔE (%) Light fastness", "setting": "[1]", "value": 3, "unit": "%"}, {"measurement": "Tts", "setting": "[2]", "value": 85.8, "unit": "%"}]}
{"compound": "[O]=[V+2].c1ccc(OCCOCCCCc2ccc(CCCCOCCOc3ccccc3)c3c2-c2nc-3nc3[n-]c(nc4nc(nc5[n-]c(n2)c2c(CCCCOCCOc6ccccc6)ccc(CCCCOCCOc6ccccc6)c52)-c2c(CCCCOCCOc5ccccc5)ccc(CCCCOCCOc5ccccc5)c2-4)c2c(CCCCOCCOc4ccccc4)ccc(CCCCOCCOc4ccccc4)c32)cc1", "note": "[Specific Example (1)-38]", "values": [{"measurement": "ΔE (%) Light fastness", "setting": "[1]", "value": 5, "unit": "%"}, {"measurement": "Tts", "setting": "[2]", "value": 85.8, "unit": "%"}]}
{"compound": "COc1cccc(OCCCCc2ccc(CCCCOc3cccc(OC)c3)c3c2-c2nc-3nc3[n-]c(nc4nc(nc5[n-]c(n2)c2c(CCCCOc6cccc(OC)c6)ccc(CCCCOc6cccc(OC)c6)c52)-c2c(CCCCOc5cccc(OC)c5)ccc(CCCCOc5cccc(OC)c5)c2-4)c2c(CCCCOc4cccc(OC)c4)ccc(CCCCOc4cccc(OC)c4)c32)c1.[Cu+2]", "note": "[Specific Example (1)-40]", "values": [{"measurement": "ΔE (%) Light fastness", "setting": "[1]", "value": 2, "unit": "%"}, {"measurement": "Tts", "setting": "[2]", "value": 85.9, "unit": "%"}]}
{"compound": "COCCCCc1ccc(CCCCOC)c2c1-c1nc-2nc2[n-]c(nc3nc(nc4[n-]c(n1)c1c(CCCCOC)ccc(CCCCOC)c41)-c1c(CCCCOC)ccc(CCCCOC)c1-3)c1c(CCCCOC)ccc(CCCCOC)c21.[O]=[V+2]", "note": "[Specific Example (1)-30]", "values": [{"measurement": "ΔE (%) Light fastness", "setting": "[1]", "value": 5, "unit": "%"}, {"measurement": "Tts", "setting": "[2]", "value": 86.1, "unit": "%"}]}
{"compound": "CC(C)(C)c1ccc(OCCCCc2ccc(CCCCOc3ccc(C(C)(C)C)cc3)c3c2-c2nc-3nc3[n-]c(nc4nc(nc5[n-]c(n2)c2c(CCCCOc6ccc(C(C)(C)C)cc6)ccc(CCCCOc6ccc(C(C)(C)C)cc6)c52)-c2c(CCCCOc5ccc(C(C)(C)C)cc5)ccc(CCCCOc5ccc(C(C)(C)C)cc5)c2-4)c2c(CCCCOc4ccc(C(C)(C)C)cc4)ccc(CCCCOc4ccc(C(C)(C)C)cc4)c32)cc1.[O]=[V+2]", "note": "[Specific Example (1)-42]", "values": [{"measurement": "ΔE (%) Light fastness", "setting": "[1]", "value": 4, "unit": "%"}, {"measurement": "Tts", "setting": "[2]", "value": 86, "unit": "%"}]}
{"compound": "COc1cccc(OC)c1OCCCCc1ccc(CCCCOc2c(OC)cccc2OC)c2c1-c1nc-2nc2[n-]c(nc3nc(nc4[n-]c(n1)c1c(CCCCOc5c(OC)cccc5OC)ccc(CCCCOc5c(OC)cccc5OC)c41)-c1c(CCCCOc4c(OC)cccc4OC)ccc(CCCCOc4c(OC)cccc4OC)c1-3)c1c(CCCCOc3c(OC)cccc3OC)ccc(CCCCOc3c(OC)cccc3OC)c21.[O]=[V+2]", "note": "[Specific Example (1)-44]", "values": [{"measurement": "ΔE (%) Light fastness", "setting": "[1]", "value": 3, "unit": "%"}, {"measurement": "Tts", "setting": "[2]", "value": 85.6, "unit": "%"}]}
{"compound": "Fc1ccccc1OCCCCc1ccc(CCCCOc2ccccc2F)c2c1-c1nc-2nc2[n-]c(nc3nc(nc4[n-]c(n1)c1c(CCCCOc5ccccc5F)ccc(CCCCOc5ccccc5F)c41)-c1c(CCCCOc4ccccc4F)ccc(CCCCOc4ccccc4F)c1-3)c1c(CCCCOc3ccccc3F)ccc(CCCCOc3ccccc3F)c21.[O]=[V+2]", "note": "[Specific Example (1)-43]", "values": [{"measurement": "ΔE (%) Light fastness", "setting": "[1]", "value": 2, "unit": "%"}, {"measurement": "Tts", "setting": "[2]", "value": 85.7, "unit": "%"}]}
{"compound": "COCc1ccc(COC)c2c1-c1nc-2nc2[n-]c(nc3nc(nc4[n-]c(n1)c1c(COC)ccc(COC)c41)-c1c(COC)ccc(COC)c1-3)c1c(COC)ccc(COC)c21.[O]=[V+2]", "note": "[Comparative Example Compound (a), reference compound]", "values": [{"measurement": "ΔE (%) Light fastness", "setting": "[1]", "value": 33, "unit": "%"}, {"measurement": "Tts", "setting": "[2]", "value": 89.5, "unit": "%"}]}
{"compound": "COCCCCc1ccc(CCCCOC)c2c1-c1nc-2nc2[n-]c(nc3nc(nc4[n-]c(n1)c1c(CCCCOC)ccc(CCCCOC)c41)-c1c(CCCCOC)ccc(CCCCOC)c1-3)c1c(CCCCOC)ccc(CCCCOC)c21.[Cu+2]", "note": "[Specific Example (1)-31]", "values": [{"measurement": "ΔE (%) Light fastness", "setting": "[1]", "value": 3, "unit": "%"}, {"measurement": "Tts", "setting": "[2]", "value": 86, "unit": "%"}]}
